Measured values taken from ChEMBL document CHEMBL3856194, “N'-((2-(6-bromo-2-oxo-2H-chromen-3-yl)-1H-indol-3-yl)methylene)benzohydrazide as a probable Bcl-2/Bcl-xL inhibitor with apoptotic and anti-metastatic potential” (Eur J Med Chem, 2016).

What was measured:
[1] = Cytotoxicity against African green monkey Vero cells assessed as cell growth inhibition after 48 hrs by MTT assay; assay type: toxicity, cell-based; details: African green monkey (Chlorocebus sabaeus)
[2] = Cytotoxicity against human MCF7 cells assessed as cell growth inhibition after 48 hrs by MTT assay; assay type: functional, cell-based; details: MCF7, 48 h
[3] = Cell cycle arrest in human MCF7 cells assessed as accumulation at G0/G1 phase at 0.5 uM after 18 to 24 hrs by propidium iodide staining based flow cytometry (reference value: 67 %); assay type: functional
MCF7 [4] = test: Induction of apoptosis in human MCF7 cells assessed as viable cells after 24 to 48 hrs by Annexin V/7-AAD staining based flow cytometry (reference value: 72.30 %); assay type: functional
[5] = Cell cycle arrest in human MCF7 cells assessed as accumulation at sub-G0 phase at 0.5 uM after 18 to 24 hrs by propidium iodide staining based flow cytometry (reference value: 1.4 %); assay type: functional
[6] = Cell cycle arrest in human MCF7 cells assessed as accumulation at S phase at 0.5 uM after 18 to 24 hrs by propidium iodide staining based flow cytometry (reference value: 8.5 %); assay type: functional
MCF7 [7] = test: Induction of apoptosis in human MCF7 cells assessed as early apoptotic cells after 24 to 48 hrs by Annexin V/7-AAD staining based flow cytometry (reference value: 4.90 %); assay type: functional
[8] = Cell cycle arrest in human MCF7 cells assessed as accumulation at G2/M phase at 0.5 uM after 18 to 24 hrs by propidium iodide staining based flow cytometry (reference value: 18.8 %); assay type: functional
MCF7 [9] = test: Induction of apoptosis in human MCF7 cells assessed as necrotic cells after 24 to 48 hrs by Annexin V/7-AAD staining based flow cytometry (reference value: 6.75 %); assay type: functional
MCF7 [10] = test: Induction of apoptosis in human MCF7 cells assessed as late apoptotic cells after 24 to 48 hrs by Annexin V/7-AAD staining based flow cytometry (reference value: 16.05 %); assay type: functional
MCF7 [11] = test: Selectivity index, ratio of IC50 for African green monkey Vero cells to IC50 for human MCF7 cells; assay type: functional

SMILES	IC50 at 48 h [1]	IC50 [2]	also measured
O=C(N/N=C/c1c(-c2cc3ccccc3oc2=O)[nH]c2ccccc12)c1ccc(Cl)cc1F	> 200 µM	> 200 µM	
O=C(N/N=C/c1c(-c2cc3ccccc3oc2=O)[nH]c2ccccc12)c1ccccc1F	> 200 µM	> 200 µM	
O=C(N/N=C/c1c(-c2cc3ccccc3oc2=O)[nH]c2ccccc12)c1cccc(Br)c1	> 200 µM	> 200 µM	
O=C(N/N=C/c1c(-c2cc3ccccc3oc2=O)[nH]c2ccccc12)c1ccccc1	121 µM	> 200 µM	
O=C(N/N=C/c1c(-c2cc3ccccc3oc2=O)[nH]c2ccccc12)c1ccccc1Cl	> 200 µM	164 µM	
O=C(N/N=C/c1c(-c2cc3ccccc3oc2=O)[nH]c2ccccc12)c1ccc(Cl)cc1	> 200 µM	> 200 µM	
CC[C@]1(O)C[C@H]2CN(CCc3c([nH]c4ccccc34)[C@@](C(=O)OC)(c3cc4c(cc3OC)N(C=O)[C@H]3[C@@](O)(C(=O)OC)[C@H](OC(C)=O)[C@]5(CC)C=CCN6CC[C@]43[C@@H]65)C2)C1 [VINCRISTINE]	0.9 µM	0.3 µM	Activity [3]: 17.9%; Activity (MCF7 [4]): 56.1%; Activity [5]: 5.1%; Activity [6]: 7.8%; Activity (MCF7 [7]): 2.75%; Activity [8]: 54.6%; Activity (MCF7 [9]): 23.45%; Activity (MCF7 [10]): 17.7%; Ratio IC50 (MCF7 [11]): 3
